According to US10548321B2 (priority 2009, dated 2020):
Where two headings read alike, the source gives them in different places.

Tested on: Pyricularia oryzae
Format: cell-based
Conditions: single active, absorption at 405 nm 7 days after inoculation, 18° C

Structure (SMILES) | Observed efficacy (0.004 ppm) | Observed efficacy (1 ppm)
COC(=O)N(OC)c1ccccc1COc1ccn(-c2ccc(Cl)cc2)n1 [Pyraclostrobin, pyraclostrobin] | 23% | 
CC1(C)C(C=C(Cl)Cl)C1C(=O)OC(C#N)c1cccc(Oc2ccccc2)c1 (stereo not drawn) [alpha-Cypermethrin, alpha-cypermethrin] |  | 1%
